Legend:
Type in all cases: cell-based
[1] = tested on: mesenchymal stem cells derived from human adipose tissue; assay: Test Example 5: cell proliferation activity (cell viability), CellTiter-Glo; parameters: scale not given here
Experimental: Mesenchymal stem cells derived from the human adipose tissue (#C-12977 manufactured by Takara Bio Inc.) were suspended in mesenchymal stem cell growth medium 2 (C-28009 manufactured by Takara Bio Inc.) so as to be 2×10^3 cells/90 μL, and seeded on a 96-well cell culture treatment plate (3585 manufactured by Corning Inc.). To the seeded mesenchymal stem cells derived from human adipose tissue was added 10 μL of the compound solution of each of Examples 1 to 8 diluted to 10-fold concentration with the mesenchymal stem cell growth medium 2, or mesenchymal stem cell growth medium alone (control), and the cells were cultured for 24 hours. Subsequently, the number of living cells was measured as follows using CellTiter-Glo (Registered Trademark) Luminescent Cell Viability Assay (G7570 manufactured by Promega). 100 μL well of a solution in which CellTiter-Glo (trademark) Substrate was dissolved in CellTiter-Glo (trademark) Buffer was added to each well of the above-mentioned 96-well cell culture treatment plate, and then, 100 μL thereof was transferred to 96-well cell culture treatment white plate (356701 manufactured by Corning Inc.), and the luminescence was measured with Enspire (manufactured by PerkinElmer).

[2] = tested on: mesenchymal stem cells derived from human bone marrow; assay: Test Example 9: cell proliferation activity (cell viability), CellTiter-Glo
Experimental: (§1) Mesenchymal stem cells derived from human bone marrow or mesenchymal stem cells derived from human umbilical cord matrix (#C-12974, #C-12971 manufactured by Takara Bio Inc.) were suspended in mesenchymal stem cell growth medium 2 (C-28009 manufactured by Takara Bio Inc.) so as to be 2×10^3 cells/90 μL, and seeded on a 96-well cell culture treatment plate (3585 manufactured by Corning Inc.). To the seeded mesenchymal stem cells was added each 10 μL of the compounds of Examples 1 to 8 diluted to 10-fold concentration with the mesenchymal stem cell growth medium 2, and the cells were cultured for 24 hours. Next, according to the following method, the number of living cells was measured using CellTiter-Glo (Registered Trademark) Luminescent Cell Viability Assay (G7570 manufactured by Promega).
(§2) CellTiter-Glo (Registered Trademark) Substrate was dissolved in CellTiter-Glo (Registered Trademark) Buffer. The prepared solution was added to each well with 100 μL/well, then, 100 μL thereof was apportioned to a 96-well cell culture treatment white plate (356701 manufactured by Corning Inc.), and luminescence was measured with Enspire (manufactured by PerkinElmer). A relative value when the compound untreated group (control) was set to 1 was calculated.

[3] = tested on: mesenchymal stem cells derived from human umbilical cord matrix; assay: as above
Experimental: as §1, §2

[4] = tested on: mesenchymal stem cells derived from human bone marrow; assay: Test Example 8: cytotoxicity, LDH activity in culture solution
Experimental: (§3) Mesenchymal stem cells derived from human bone marrow or mesenchymal stem cells derived from human umbilical cord matrix (#C-12974, #C-12971 manufactured by Takara Bio Inc.) were suspended in mesenchymal stem cell growth medium 2 (C-28009 manufactured by Takara Bio Inc.) so as to be 8×10^4 cells/1.8 mL, and seeded on a 6-well cell culture treatment plate (3516 manufactured by Corning Inc.). To the seeded mesenchymal stem cells was added each 200 μL of the compounds of Examples 1 to 8 diluted to 10-fold concentration with the mesenchymal stem cell growth medium 2, and after culturing for 24 hours, the culture solution was recovered. The activity of lactate dehydrogenase (LDH) contained in the recovered culture solution was measured by using LDH Cytotoxicity Detection Kit (MK401 manufactured by Takara Bio Inc.). To a freeze-dried product of Solution A was added 1 mL of purified water to completely dissolve therein, then, 250 μL of Solution A and 11.25 mL of Solution B were mixed to prepare Solution C. To 100 μL of the recovered culture solution was added 100 μL of Solution C, and the mixture was reacted at room temperature for 30 minutes. Absorbance at 490 nm was measured using Enspire (manufactured by PerkinElmer). Based on the obtained measured values, a relative value when the compound untreated group (control) was set to 1 was calculated.

[5] = tested on: mesenchymal stem cells derived from human umbilical cord matrix; assay: as above
Experimental: as §3

[6] = tested on: mesenchymal stem cells derived from human adipose tissue; assay: Test Example 4: cytotoxicity, LDH activity in culture solution
Experimental: Mesenchymal stem cells derived from the human adipose tissue (#C-12977 manufactured by Takara Bio Inc.) were suspended in mesenchymal stem cell growth medium 2 (C-28009 manufactured by Takara Bio Inc.) so as to be 8×10^4 cells/1.8 mL, and seeded on a 6-well cell culture treatment plate (3516 manufactured by Corning Inc.). To the seeded mesenchymal stem cells derived from human adipose tissue was added 200 μL of the compound solution of each of Examples 1 to 8 diluted to 10-fold concentration with the mesenchymal stem cell growth medium 2, or mesenchymal stem cell growth medium alone (control), and after culturing for 24 hours, the culture solution was recovered. The activity of lactate dehydrogenase (LDH) contained in the recovered culture solution was measured by using LDH Cytotoxicity Detection Kit (MK401 manufactured by Takara Bio Inc.) as follows. To a freeze-dried product of Solution A was added 1 mL of purified water to completely dissolve therein, then, 250 μL of Solution A and 11.25 mL of Solution B were mixed to prepare Solution C. To 100 μL of the recovered culture solution was added 100 μL of Solution C, and the mixture was reacted at room temperature for 30 minutes. Absorbance at 490 nm was measured using Enspire (manufactured by PerkinElmer).

[7] = 2 μM, 24 hours, LDH, 490 nm, control set to 1
[8] = Table 4, 2 μM, 24 hours, LDH, absorbance at 490 nm
[9] = Table 6, 2 μM, 24 hours, number of living cells, CellTiter-Glo
[10] = 2 μM, 24 hours, CellTiter-Glo, control set to 1
[11] = Table 6, 50 nM, 24 hours, number of living cells, CellTiter-Glo
[12] = 20 nM, 24 hours, CellTiter-Glo, control set to 1
[13] = 20 nM, 24 hours, LDH, 490 nm, control set to 1
[14] = Table 4, 50 nM, 24 hours, LDH, absorbance at 490 nm

Compound | Relative value of absorbance [4, 7] | Relative value of absorbance [5, 7] | Absorbance [6, 8] | Luminescence [1, 9] | Relative value of luminescence [2, 10] | Relative value of luminescence [3, 10] | Relative value of luminescence [2, 12] | Relative value of luminescence [3, 12] | Relative value of absorbance [4, 13] | Relative value of absorbance [5, 13] | other results
Cc1cc2c(C(C)C)c(O)c(O)c(C=O)c2c(O)c1-c1c(C)cc2c(C(C)C)c(O)c(O)c(C=O)c2c1O [Example 4, (R)-(−)-Gossypol] | 0.97 | 0.88 | 1.20 |  |  |  |  |  |  |  | Luminescence ([1]; human, 24 h, 2 μM): 0.85; Relative value of luminescence ([2]; human, 24 h, 2 μM): 0.86; Relative value of luminescence ([3]; human, 24 h, 2 μM): 0.92
Cc1cc2c(C(=O)NC[C@H](C)c3ccccc3)c(O)c(O)cc2c(O)c1-c1c(C)cc2c(C(=O)NC[C@H](C)c3ccccc3)c(O)c(O)cc2c1O [Example 8, Sabutoclax] | 1.01 | 1.15 | 1.18 | 0.95 | 0.93 | 1.00 |  |  |  |  | 
CC(=O)O.Cc1cc2c(C(C)C)c(O)c(O)c(C=O)c2c(O)c1-c1c(C)cc2c(C(C)C)c(O)c(O)c(C=O)c2c1O (racemic) [Example 1, (±)-Gossypol Acetate] | 0.93 | 0.78 | 0.73 | 0.96 | 0.91 | 0.97 |  |  |  |  | Luminescence ([1]; Table 5, 2 μM, 24 hours, number of living cells, CellTiter-Glo): 0.87; Absorbance ([6]; Table 3, 2 μM, 24 hours, LDH, absorbance at 490 nm): 1.08
Cc1cc2c(C(C)C)c(O)c(O)cc2c(O)c1-c1c(C)cc2c(C(C)C)c(O)c(O)cc2c1O [Example 3, (+)-Apogossypol] |  |  |  |  |  |  |  |  |  |  | Luminescence ([1]; human, 24 h, 2 μM): 0.82; Relative value of luminescence ([2]; human, 24 h, 2 μM): 1.00; Relative value of luminescence ([3]; human, 24 h, 2 μM): 1.01; Relative value of absorbance ([4]; human, 24 h, 2 μM): 0.99; Relative value of absorbance ([5]; human, 24 h, 2 μM): 1.06; Absorbance ([6]; human, 24 h, 2 μM): 1.02
CCCCCCCCCCCc1ccc(/C=C2\N=C(c3ccc[nH]3)C=C2OC)[nH]1.Cl [Example 7, Undecylprodigiosin Hydrochloride] |  |  |  |  |  |  | 0.82 | 0.82 | 0.99 | 1.03 | Luminescence [1, 11]: 0.74; Absorbance [6, 14]: 1.02
COC1=CC(c2cc3ccccc3[nH]2)=N/C1=C\c1[nH]c(C)cc1C.CS(=O)(=O)O [Example 5, Obatoclax Mesylate] |  |  |  |  |  |  | 0.96 | 0.84 | 0.96 | 0.94 | Luminescence ([1]; Table 5, 50 nM, 24 hours, number of living cells, CellTiter-Glo): 0.75; Absorbance ([6]; Table 3, 50 nM, 24 hours, LDH, absorbance at 490 nm): 1.14
CC(=O)O.Cc1cc2c(C(C)C)c(O)c(O)c(C=O)c2c(O)c1-c1c(C)cc2c(C(C)C)c(O)c(O)c(C=O)c2c1O [Example 2, (S)-Gossypol Acetate] | 0.99 | 1.04 | 1.02 | 1.00 | 0.96 | 0.97 |  |  |  |  | 
CCCCCC1=C/C(=C\c2[nH]c(-c3ccc[nH]3)cc2OC)N=C1C.Cl [Example 6, Prodigiosin Hydrochloride] |  |  |  |  |  |  | 0.92 | 0.78 | 0.93 | 0.97 | Luminescence [1, 11]: 0.76; Absorbance [6, 14]: 1.02

Reference: patent publication US20220162561A1, “COMPOSITION FOR PROMOTING SECRETION OF EXTRACELLULAR VESICLES” (priority 2019, published 2022)
